This note sets out measurements from US20220323406A1, “METHODS AND COMPOSITIONS FOR DIFFERENTIATING STEM CELLS” (Massachusetts Institute of Technology, priority 2019, published 2022).

Assay [1] relates to ENR+CD organoids. In words: Primary screen: ATP (CellTiter-Glo 3D, CTG) cell number/viability, 2.5-D 384-well ENR+CD organoids.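 As to all read-outs here: compounds given at plating and again on day 3 over a 6-day differentiation from ENR+CV stem-cell-enriched precursors, ATP measured on day 6, plate median as control.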 The settings on record: primary screen; for Z.CTG: standard z score.
In assay [2] the test system is ENR+CD organoids (ISC to Paneth cell differentiation). Put plainly: Primary screen: basal (non-stimulated) lysozyme secretion LYZ.NS, 2.5-D 384-well ENR+CD organoid differentiation. The class given is cell-based, mouse. Conditions: primary screen; for Z.LYZ.NS: standard z score. The text has this: (§1) High-throughput screening.
The test system is the same in assay [3]. In words: Primary screen: CCh-stimulated lysozyme secretion LYZ.S, 2.5-D 384-well ENR+CD organoid differentiation. The class given is cell-based, mouse. The settings on record: primary screen.
Source text: as §1

[4] abbreviates: dose 0.08 uM, FC relative to plate median.
The mark [5] stands for this setting: dose 0.40 uM, FC relative to plate median.
Where [6] appears, read: dose 2.00 uM, FC relative to plate median.
Setting [7] is: dose 10.00 uM, FC relative to plate median.

Consider `COc1cc2c(Nc3ccc(NC(=O)c4ccccc4)cc3)ncnc2cc1OCCCN1CCOCC1` [ZM 447439], for which the Dose.FC.CTG is 0.512 log2 fold change in assay [1] (dose 0.08 uM), 0.304 log2 fold change in assay [1] (dose 0.40 uM), 0.231 log2 fold change in assay [1] (dose 2.00 uM) and −0.240 log2 fold change in assay [1] (dose 10.00 uM). Moreover, the “Z.CTG (standard z score)” value in assay [1] (dose 0.08 uM) was 1.222; in assay [1] (dose 0.40 uM), 0.725; in assay [1] (dose 2.00 uM), 0.552; in assay [1] (dose 10.00 uM) it was −0.574. Also, the Dose.FC.LYZ.NS in assay [2] (dose 0.08 uM) was 0.103 log2 fold change; in assay [2] (dose 0.40 uM), 0.107 log2 fold change; in assay [2] (dose 2.00 uM), 0.052 log2 fold change; in assay [2] (dose 10.00 uM), −0.080 log2 fold change. In addition, the “Z.LYZ.NS (standard z score)” value in assay [2] (dose 0.08 uM) is listed as 0.896; in assay [2] (dose 0.40 uM), 0.932; in assay [2] (dose 2.00 uM), 0.456; in assay [2] (dose 10.00 uM), −0.695. Also, the Dose.FC.LYZ.S was 0.171 log2 fold change in assay [3] (dose 0.08 uM), 0.108 log2 fold change in assay [3] (dose 0.40 uM), 0.074 log2 fold change in assay [3] (dose 2.00 uM) and −0.132 log2 fold change in assay [3] (dose 10.00 uM).

`O=C(O)CCc1ccc(NCc2cccc(Oc3ccccc3)c2)cc1` [GW9508]: the “Dose.FC.CTG (log2 fold change)” value is reported as 0.063 in assay [1] (dose 0.08 uM), 0.174 in assay [1] (dose 0.40 uM), −0.001 in assay [1] (dose 2.00 uM) and −0.059 in assay [1] (dose 10.00 uM). The “Z.CTG (standard z score)” value is 0.151 in assay [1] (dose 0.08 uM), 0.417 in assay [1] (dose 0.40 uM), −0.003 in assay [1] (dose 2.00 uM) and −0.140 in assay [1] (dose 10.00 uM). Moreover, the “Dose.FC.LYZ.NS (log2 fold change)” value is 0.075 in assay [2] (dose 0.08 uM), 0.019 in assay [2] (dose 0.40 uM), −0.011 in assay [2] (dose 2.00 uM) and −0.040 in assay [2] (dose 10.00 uM). Moreover, the “Z.LYZ.NS (standard z score)” value is on record as 0.650 in assay [2] (dose 0.08 uM), 0.169 in assay [2] (dose 0.40 uM), −0.092 in assay [2] (dose 2.00 uM) and −0.350 in assay [2] (dose 10.00 uM). Besides, the “Dose.FC.LYZ.S (log2 fold change)” value was 0.067 in assay [3] (dose 0.08 uM), 0.049 in assay [3] (dose 0.40 uM), 0.000 in assay [3] (dose 2.00 uM) and −0.045 in assay [3] (dose 10.00 uM).

For `COc1cc(OC)c(/C=C/S(=O)(=O)Cc2ccc(OC)c(NCC(=O)O)c2)c(OC)c1` [Rigosertib (ON-01910)], the Dose.FC.CTG in assay [1] (setting [4]) was −0.905 log2 fold change; in assay [1] (setting [5]) it was −1.285 log2 fold change; in assay [1] (setting [6]) it was −1.668 log2 fold change; in assay [1] (setting [7]), −0.847 log2 fold change. The Z.CTG in assay [1] (dose 0.08 uM) was −2.162; in assay [1] (dose 0.40 uM), −3.069; in assay [1] (dose 2.00 uM), −3.984; in assay [1] (dose 10.00 uM), −2.022. For the same compound, the Dose.FC.LYZ.NS is on record as −0.242 log2 fold change in assay [2] (setting [4]), −0.210 log2 fold change in assay [2] (setting [5]), −0.265 log2 fold change in assay [2] (setting [6]) and −0.242 log2 fold change in assay [2] (setting [7]). Moreover, the Z.LYZ.NS is −2.105 in assay [2] (dose 0.08 uM), −1.831 in assay [2] (dose 0.40 uM), −2.306 in assay [2] (dose 2.00 uM) and −2.107 in assay [2] (dose 10.00 uM). Also, the Dose.FC.LYZ.S is reported as −0.309 log2 fold change in assay [3] (setting [4]), −0.355 log2 fold change in assay [3] (setting [5]), −0.340 log2 fold change in assay [3] (setting [6]) and −0.330 log2 fold change in assay [3] (setting [7]).

In the case of `Oc1ccc(Nc2nc(-c3ccc(Cl)cc3)cs2)cc1` [SKI II], the Dose.FC.CTG is listed as 0.293 log2 fold change in assay [1] (setting [4]), 0.222 log2 fold change in assay [1] (setting [5]), 0.198 log2 fold change in assay [1] (setting [6]) and −0.336 log2 fold change in assay [1] (setting [7]). The Z.CTG is 0.699 in assay [1] (dose 0.08 uM), 0.531 in assay [1] (dose 0.40 uM), 0.473 in assay [1] (dose 2.00 uM) and −0.802 in assay [1] (dose 10.00 uM). Moreover, the Dose.FC.LYZ.NS in assay [2] (setting [4]) was 0.078 log2 fold change; in assay [2] (setting [5]), 0.219 log2 fold change; in assay [2] (setting [6]) it was 0.074 log2 fold change; in assay [2] (setting [7]) it was −0.156 log2 fold change. Besides, the Z.LYZ.NS in assay [2] (dose 0.08 uM) was 0.683; in assay [2] (dose 0.40 uM), 1.906; in assay [2] (dose 2.00 uM), 0.647; in assay [2] (dose 10.00 uM), −1.362. For the same compound, the Dose.FC.LYZ.S in assay [3] (setting [4]) is on record as 0.090 log2 fold change; in assay [3] (setting [5]), 0.123 log2 fold change; in assay [3] (setting [6]), 0.061 log2 fold change; in assay [3] (setting [7]) it was −0.191 log2 fold change.
